The conditions of data set [1]: cited from earlier work.
For a further data set, the system named is Thromboxane B2. The following applies: in 5 minutes of post bolus injection; 5 ml of 100 mg/ml ASA injected in less than 2 minutes; cited from earlier work.
A short description of another data set: physchem. As for the experimental part: The batch volume was made up to 100 ml with addition of 70/30 TBA/water. […] 5 ml aliquots were placed in flint vials and lyophilized. Upon completion of lyophilization, the contents of the vial were reconstituted with 5 ml of Water for Injection.
Data set [2] is described as follows: Bulk solution stability of Example 3C at 25° C. In kind it is physicochemical. As for the experimental part:
All three solutions were filtered and 5 ml each placed in a Type I flint vials and lyophilized. […] The lyophilized cakes in all vials were shrunken and collapsed. […] Since lyophilization of the ASA-lysine solution was carried out at about −30° C., all water was removed by sublimation at this low temperature. It is not known whether degradation took place during the lyophilization or during the preparation of the bulk solution or combination of both. Therefore, we have investigated the bulk solution stability of example 3C at 25° C.

The nature of data set [3]: pH and appearance of bulk and reconstituted solutions of ASA co-lyophilized with bases in TBA/water. Format: physicochemical. The conditions noted are these: 20 mg/ml aspirin in 80% TBA/20 water. The source says: The pH of the solution was raised to 6.5 using 1N sodium hydroxide. Phase separation was observed, probably due to salting out of inorganic base from TBA/Water system. In the next trial, we first raised the pH of the solution to 5.0 using 1N sodium hydroxide, and then sodium phosphate, dibasic to raise the pH to 6.5. Sodium phosphate, dibasic was used for a better control of pH. Since we still observed phase separation it appears that inorganic bases or buffers may not be compatible with a 80% TBA/20% water system. We may require more water, for example, 70% TBA/30% water in the system to dissolve the alkalinizing agents.
The reconstituted solution pH was 4.71.
In the next trial, we investigated incorporation of […] to facilitate complete neutralization. […] Arginine was, then, slowly added to the slurry to neutralize aspirin. […] The apparent pH of the bulk solution was 6.49. 5 ml aliquots placed in flint vials and lyophilized. Upon completion of lyophilization, the content of vial was reconstituted with 5 ml of Water for Injection. […] The reconstituted solution pH was 4.8.
Based on the above studies, it was evident that larger amount of base is needed to neutralize ASA in the preferred solvent system. To incorporate more base in the bulk solution, we explored use of 60/40 TBA/water system as solvent for lyophilization. […] The apparent pH of the bulk solution was 6.31. […]

The nature of data set [4]: Reconstitution of ASA lyophile with various basifying agents. Format: physicochemical. The conditions noted are these: basifying agent diluents of examples 13 and 14, without polysorbate 80. As for the experimental part:
One aspect of this invention was to produce a stable lyophilized product and a solvent system with sufficient bulk solution stability to withstand an aseptic processing and lyophilization process. The lyophilized products we have manufactured in most of these studies were made with 80% TBA/20% to 60% TBA/40% water solvent system and the bulk solution for lyophilization stable for 24 hours with minimal degradation. We have achieved this goal. […] The reconstitution studies were done by reconstituting a 100 mg vial with 5 ml of solution containing a buffer or a basifying agent or a combination of both.

A short description of data set [5]: Tonicity and pH of reconstituted solutions of ASA. Format: physicochemical. The text has this:
Since the aspirin product will be administered via an IV bolus route, tonicity of the final reconstituted solution is acritical factor to avoid pain at the injection site.

The test system of a further data set is platelet aggregation. The conditions noted are these: following oral dosing; cited from earlier work.
For data set [6] the following is noted: oral tablets; cited from earlier work.
For data set [7] the following is noted: intravenous vs oral; cited from earlier work.

As usually defined, the solubility is how much of the substance goes into solution per volume.

In brackets after ≈: the same amount, converted by molar mass.

As for `CC(=O)Oc1ccccc1C(=O)O.NCCCCC(N)C(=O)O` [aspirin lysine salt], the shelf life entry in [1] (Bayer sterile dry powder product) was “one year”. For the same compound, the “Thromboxane B2 inhibited” value with Thromboxane B2 is reported as “greater than 95%”.
As to `NCCCC[C@H](N)C(=O)O` [lysine], the solubility in the data set “physchem” (organic solvent or mixture) is 2000 µg/mL (≈ 13.7 mM).
On to o-acetylsalicylic acid [Aspirin], for which the figures for the “Area % of Salicylic Acid” value in [2] (4 hours) and in data set [2] (Initial) were “about 9 Area %” and “about 3 Area %”, respectively. Also, the “apparent pH of the bulk solution” value in data set [3] stood at 2.9. Moreover, the “appearance of reconstituted solution” value in data set [4] is reported as “did not show any haziness”. For the same compound, the “Osmolality (m.Osm/Kg)” value in data set [5] (12 mg/mL Na2HPO4 and 27 mg/mL of Tris buffer with 0.05% Tween80, 10 mL, ASA 50 mg/mL) is on record as 717 m.Osm/Kg; in data set [5] (17.5 mg/mL Tris Buffer with 0.05% Tween80, 20 mL, ASA 25 mg/mL), 269 m.Osm/Kg; in data set [5] (20 mg/mL Na2HPO4 with 0.05% Tween80, 25 mL, ASA 20 mg/mL) it was 481 m.Osm/Kg; in [5] (30 mg/mL of lysine and 7.5 mg/mL of Tris buffer, 20 mL, ASA 25 mg/mL), 338 m.Osm/Kg; in data set [5] (34 mg/mL Tris Buffer with 0.05% Tween80, 10 mL, ASA 50 mg/mL) it was 549 m.Osm/Kg; in data set [5] (34 mg/mL Tris Buffer, 10 mL, ASA 50 mg/mL), 540 m.Osm/Kg. Moreover, the “Osmolality (m.Osm/Kg)” value in data set [5] (40 mg/mL L-Lysine, 20 mL, ASA 25 mg/mL) is reported as 380 m.Osm/Kg; in data set [5] (40 mg/mL of L-Lysine with 0.05% Tween80, 20 mL, ASA 25 mg/mL), 388 m.Osm/Kg; in data set [5] (50 mg/mL Na2HPO4 with 0.05% Tween80, 10 mL, ASA 50 mg/mL), 1172 m.Osm/Kg; in [5] (68 mg/mL Tris Buffer with 0.05% Tween80, 10 mL, ASA 100 mg/mL) it was 1060 m.Osm/Kg; in data set [5] (68 mg/mL Tris Buffer with 0.05% Tween80, Aspirin API 1 g, 10 mL, ASA 100 mg/mL) it was 1036 m.Osm/Kg. Moreover, the “pH of the solution” value in [1] (aqueous aspirin solution) is on record as “about 2.5”. Besides, in data set [1] (concentrated aqueous bulk solution), the “time to 10% of potency loss” value is reported as “about 1.3 hours”. In addition, in data set [1] (pH 2.5), the degradation rate entry is “about 2 % per day”. For the same compound, the “onset of inhibition of platelet aggregation” value with platelet aggregation was “approximately 40 minutes”. Besides, the “initial onset of pain relief” value in data set [6] is “about 30 minutes”. The “effectiveness of intravenously administered solution versus orally administered equal amount” value in [7] is “four times as high”.
Compound tris(hydroxymethyl)aminomethane gave a solubility in the data set “physchem” (70/30 TBA/water, neat free base without ASA) of 5000 µg/mL.
